≈ marks a conversion by molar mass, not a printed value. Read-outs that look alike come from different tables or passages of the source.
Tests used:
[1] = Langmuir trough: surface pressure isotherms and BAM of pure films; format: physicochemical; conditions: pure film under compression
Description: The interactions of the microemulsion formulation SIME02A explained in Example 2 with a tear film lipid layer (TFLL) component were studied in a Langmuir trough model system. A naturally occurring lipid 20 (oleoyloxy)icosanoic acid (20-OAHFA) which represents the O-acyl-ω-hydroxy fatty acids in the TFLL was selected as a model lipid and synthesized as described in Bland et al. Langmuir 2019, 35, 3545-3552. The experiments were performed on a KSV NIMA Large trough equipped with a surface pressure balance with a platinum Wilhelmy plate, a KSV SPOT surface potential meter and KSV NIMA microBAM Brewster angle microscope (BAM), all from Biolin Scientific (Stockholm, Sweden). The Langmuir trough system was enclosed in a plastic hood with an inlet supply of dry and ozone-depleted air (Ozone solutions ODS-3P, Hull, Iow. USA) to prevent oxidation of lipids.
The Langmuir trough was filled with phosphate-buffered saline (PBS) as a subphase maintained at 35±1° C. to emulate the aqueous layer of the tear film. The model lipid 20-OAHFA or pure sacha inchi (SI) seed oil was dissolved in chloroform and spread on the surface of the PBS subphase. Chloroform was allowed to evaporate for 5 min. […] The lipid film was compressed and expanded in the trough with two Delrin barriers at a rate of 13 mm/min while the surface pressure and surface potential were measured. […]

[2] = Solubility of dexamethasone in microemulsion formulations; format: physicochemical; conditions: for solubility: aqueous with cosolvent or surfactant or cyclodextrin, equilibrium from dmso stock, room temperature, 8-9 days, read-out: Solubility of DXM
Description: The solubility of dexamethasone (DXM) in the microemulsion formulations was studied. To formulations containing 0.1%, 0.5%, 1%, or 5% of the sacha inchi seed oil, DXM ([…] stock in dimethyl sulfoxide, DMSO) was added at concentrations of […] in triplicate. […] The test vials were incubated at room temperature with continuous shaking (90 rpm) for 8-9 days until equilibrium. After incubation, the samples were mixed 1:1 with acetonitrile for 10 min and centrifuged (13,000 rpm, 10 min), followed by immediate HPLC analysis of the supernatant for DXM concentration. HPLC analysis was performed with Agilent 1100 series HPLC system and Eclipse XDB-C18 column (1.8 μm, 4.6×50 mm; Agilent) maintained at 60° C. Isocratic elution of the 5-μl sample injected was performed with 65% Eluent A (1% TFA in Milli-Q water) and 35% Eluent B (0.1% TFA in acetonitrile) at flow rate 1 ml/min and UV detection at 240 nm.

| Compound | Surface pressure of transition to a solid monolayer [1] [mN/m] | Solubility of DXM relative to PBS ([2]; 1% oil concentration in the formulation) [times] | solubility ([2]; microemulsion formulation with 5% sacha inchi seed oil, microemulsion with 5% oil) [mg/mL] | Solubility of DXM relative to PBS ([2]; microemulsion with 5% oil) | Solubility of DXM relative to PBS ([2]; microemulsions with lower oil concentrations) | solubility ([2]; phosphate-buffered saline (PBS), PBS alone) [mg/mL] |
| --- | --- | --- | --- | --- | --- | --- |
| CCCCCCCC/C=C\CCCCCCCC(=O)OCCCCCCCCCCCCCCCCCCCC(=O)O [20-OAHFA, 20 (oleoyloxy)icosanoic acid] | 2.5 |  |  |  |  |  |
| C[C@@H]1C[C@H]2[C@@H]3CCC4=CC(=O)C=C[C@]4(C)[C@@]3(F)[C@@H](O)C[C@]2(C)[C@@]1(O)C(=O)CO [DXM, Dexamethasone] |  | 2.5 | ~3.7 (≈ 9.43 mM) | about 15 times | at the same level as in PBS | ~0.25 (≈ 0.637 mM) |

Source: patent publication US20230149337A1, “OPHTHALMIC FORMULATION AND ITS USE” (OY FINNSUSP AB, priority 2020, published 2023)
